Source: PMC10218498, “Exploring BenzylethoxyAryl Urea Scaffolds for Multitarget Immunomodulation Therapies” (International Journal of Molecular Sciences, 2023)

What was measured:
LCK = experiment: Immunoblotting of OT-1 CTL signaling proteins: LCK; format: cell-based, mice; settings: OT-1, 20 μM, 24 h
Description: (§1) We next studied the effect of our compounds on the signaling cascade downstream of the TCR. […] However, both the expression and phosphorylation of LCK were increased in response to all compounds. The effects on ZAP70 and LAT were more complex, with opposing effects on total protein expression versus phosphorylation. Thus, all compounds modulated signaling downstream of the TCR in a manner that is likely to impact T-cell activation and activity.
(§2) CD8+ cells were obtained from the inguinal, axillary, brachial, and mesenteric lymph nodes previously collected from OT-1 mice. Lymph node cells were isolated by mashing through a […] cell strainer. Cells were resuspended in IMDM cell media at a concentration of 0.3 million cells/mL. N4 ovalbumin peptide was added at a concentration of 10 nM, and cells were incubated for 48 h at 5% CO2, 37 °C. On day 2 from recollection, cells were pelleted at 1300 rpm for 5 min and washed with PBS to remove N4 peptide. The cell pellet was resuspended in fresh IMDM media in a new flask in a 0.3 million cells/mL and supplemented with IL-2 at 20 ng/mL. After incubation for a further 48 h (day 4), cells were re-seeded in fresh IMDM media at a concentration of 0.3 million cells/mL supplemented with IL-2 at 20 ng/mL. Cells were cultured for a further 48 h prior to use on day 6 in functional assays.
(§3) To study the effect of the compounds in the signaling pathway of CTLs, the compound was incubated for 24 h at 20 μM. After this time, cells were collected and washed twice in PBS and lysed in radioimmunoprecipitation assay (RIPA) lysis buffer (50 mM tris-HCl at pH 7.4, 150 mM sodium chloride, 5 mM EGTA, 0.1% SDS, 1% NP-40, and 1% deoxycholate) supplemented with a protease and phosphatase inhibitor cocktail (mini complete ULTRA Protease tablet and phosSTOP tablet from Roche, Basel, Switzerland). Lysates were clarified by high-speed centrifugation (17,000 rpm for 15 min at 4 °C). Protein concentration was measured using a Micro BCA Protein Assay (Thermo Scientific, Waltham, MA, USA), and 10 μg to 30 μg of total protein were supplemented with 2X SDS sample buffer [tris (pH 6.8), 20% glycerol, 5% SDS, b-mercaptoethanol, and bromophenol blue) and boiled at 95 °C for 5 min. […] Bound Ab was detected by incubation with anti-rabbit and anti-mouse horseradish peroxidase secondary Ab (Cell Signaling Technology) and visualized using the Bio-Rad ChemiDoc MP Imaging System.

[1] = tested on: HEK-293 (human embryonic kidney cells); experiment: MTT cell proliferation assay, HEK-293; format: cell-based; settings: HEK293, 48 h of treatment
Method: (§4) This assay allowed us to establish the corresponding IC50 values (expressed as the concentration, in μM, at which 50% of cell viability is achieved), shown in Table 1.
(§5) In 96-well plates, 5 × 10^3 (HT-29, MCF-7, A549, HMEC-1, Jurkat, and HEK-293) cells per well were incubated with serial dilutions of the tested compounds in a total volume of 100 μL of their respective growth media. The 3-(4,5-dimethylthiazol-2-yl)-2,5-diphenyltetrazolium bromide (MTT; Sigma Chemical Co.) dye reduction assay in 96-well microplates was used. After 2 days of incubation (37 °C, 5% CO2 in a humid atmosphere), 10 μL of MTT (5 mg/mL in phosphate-buffered saline, PBS) was added to each well, and the plate was incubated for a further 3 h (37 °C). After that, the supernatant was discarded and replaced by 100 µL of DMSO to dissolve formazan crystals. The absorbance was then read at 550 nm by spectrophotometry. For all concentrations of compound, cell viability was expressed as the percentage of the ratio between the mean absorbance of treated cells and the mean absorbance of untreated cells. Three independent experiments were performed, and the IC50 values (i.e., concentration half inhibiting cell proliferation) were graphically determined using GraphPad Prism 4 software.

[2] = tested on: human microvessel endothelial cells (HMEC-1); experiment: MTT cell proliferation assay, HMEC-1; format: cell-based; settings: 48 h of treatment
Method: as §4, §5

Jurkat T cells = experiment: MTT cell proliferation assay, Jurkat T cells; format: cell-based; settings: Homo sapiens, 48 h of treatment
Method: as §4, §5

[3] = tested on: HT-29 (colon adenocarcinoma); experiment: MTT cell proliferation assay, HT-29; format: cell-based, human; settings: MTT; for IC50: Homo sapiens, HT-29, 48 h of treatment, read-out: IC50 HT-29
Method: (§6) The 3-(4,5-dimethylthiazol-2-yl)-2,5-diphenyltetrazolium bromide (MTT; Sigma Chemical Co.) dye reduction assay in 96-well microplates was used. […] After that, the supernatant was discarded and replaced by 100 µL of DMSO to dissolve formazan crystals. The absorbance was then read at 550 nm by spectrophotometry. For all concentrations of compound, cell viability was expressed as the percentage of the ratio between the mean absorbance of treated cells and the mean absorbance of untreated cells. Three independent experiments were performed, and the IC50 values (i.e., concentration half inhibiting cell proliferation) were graphically determined using GraphPad Prism 4 software.

Fyn = experiment: Immunoblotting of OT-1 CTL signaling proteins: FYN; format: cell-based, mice; settings: OT-1, 20 μM, 24 h
Description: as §1, §2, §3

[4] = tested on: A-549 (pulmonary adenocarcinoma); experiment: MTT cell proliferation assay, A-549; format: cell-based, human; settings: MTT; for IC50: Homo sapiens, A549, 48 h of treatment, read-out: IC50 A-549
Method: as §6

[5] = tested on: MCF-7 (Human breast cancer adenocarcinoma); experiment: MTT cell proliferation assay, MCF-7; format: cell-based; settings: Homo sapiens, MCF7; MTT; read-out: IC50 (μM) MCF-7
Method: as §6

PD-L1 [6] = molecular target: T1, PD-L1 (Homo sapiens, UniProt Q9NZQ7); experiment: PD-L1 relative quantification by flow cytometry in A-549; format: cell-based; design: endogenous in cells; host or cells: A-549; settings: A-549, 20 µM, 24 h, relative to DMSO control = 100
Method: (§7) To assess the effect of the selected compounds on the biological targets PD-L1 and VEFGR-2, we performed the study on both cancer cell lines HT-29 and A-549 and by flow cytometry technique. […] For these assays, cells were incubated for 24 h in the presence of the corresponding compounds at 20 µM concentration.
(§8) To study the effect of the compounds on every biological target in cancer cell lines, the compounds were used at 20 µM dose.
(§9) For the assay, 10^5 cells per well were incubated for 24 h with the corresponding dose of the tested compound in a total volume of 500 μL of their growth media.
(§10) On the one hand, to detect total PD-L1 and VEGFR-2, after the cell treatments, they were collected and fixed with 4% in PBS paraformaldehyde. After fixation, a treatment with 0.5% in PBS TritonTM X-100 was performed, and finally, cells were stained with FITC Mouse monoclonal Anti-Human VEGFR-2 (ab184903) and Alexa Fluor® 647 Rabbit monoclonal Anti-PD-L1 (ab215251).
(§11) On the other hand, to detect membrane PD-L1 and VEGFR-2, the process was the same, avoiding the treatment with 0.5% in PBS TritonTM X-100 step.

[7] = tested on: HMEC-1 microtube formation; experiment: Tube formation inhibition assay on Matrigel; format: cell-based, human; settings: HMEC-1 on Matrigel, 24 h
Method: The capacity to inhibit the formation of a new vasculature network formed by HMEC-1 was evaluated on compounds 8 and 14 at different concentrations.
Wells of an IBIDI μ-slide angiogenesis (IBIDI, Martinsried, Germany) were coated with 15 μL of Matrigel® (10 mg/mL, BD Biosciences) at 4 °C. After gelatinization at 37 °C for 30 min, HMEC-1 cells were seeded at 2 × 10^4 cells/well in 25 μL of culture medium on top of the Matrigel and were incubated 30 min at 37 °C while are attached. Then, compounds were added and dissolved in 25 μL of culture medium, and after 24 h of incubation at 37 °C, tube formation was evaluated.

PD-L1 [8] = molecular target: T1, PD-L1; experiment: PD-L1 relative quantification by flow cytometry in HT-29; format: cell-based; design: endogenous in cells; host or cells: HT-29; settings: HT-29, 20 µM, 24 h, relative to DMSO control = 100
Method: as §7, §8, §9, §10, §11

PD-L1 [9] = molecular target: T1, PD-L1; experiment: PD-L1 relative quantification by flow cytometry in MCF-7; format: cell-based; design: endogenous in cells; host or cells: MCF-7; settings: MCF-7, 20 µM, 24 h, control = 100
Method: In view of the good results obtained for these selected compounds, we decided to extend the study to a third cancer cell line, MCF-7 (Human breast cancer adenocarcinoma). First, we determined the IC50 values of the derivatives and their SI indexes (see Table 4). Then, we determined the effect of the selected compounds on the biological targets, PD-L1 and VEGFR-2, by flow cytometry. […] As usually, the assay was performed at a concentration of 20 µM for 24 h.
as §8, §9, §10, §11

T1 sequence (Q9NZQ7 19-290): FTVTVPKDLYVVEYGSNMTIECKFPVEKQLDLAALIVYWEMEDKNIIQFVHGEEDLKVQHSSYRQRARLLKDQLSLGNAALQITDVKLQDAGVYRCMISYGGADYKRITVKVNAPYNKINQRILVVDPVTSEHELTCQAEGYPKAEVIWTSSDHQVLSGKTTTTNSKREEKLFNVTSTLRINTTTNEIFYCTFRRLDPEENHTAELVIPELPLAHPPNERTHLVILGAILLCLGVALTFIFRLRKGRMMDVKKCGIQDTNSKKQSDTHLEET

Compound | melting point [°C] | IC50 (Jurkat T cells) [µM] | IC50 [3] [µM] | IC50 [4] [µM] | IC50 [5] [µM] | Total PD-L1 (%) (PD-L1 [6]) | Total PD-L1 (%) (PD-L1 [8]) | % PD-L1 Memb. (PD-L1 [9]) [%] | % PD-L1 Total (PD-L1 [9]) [%] | LCK protein expression (Western blot quantification) (LCK) | pY394-LCK protein expression (Western blot quantification) (LCK) | pY505-LCK protein expression (Western blot quantification) (LCK) | IC50 [1] [µM] | IC50 [2] [µM] | FYN protein expression (Western blot quantification) (Fyn) | effect on cancer cell proliferation (HT-29), in words [3] | effect on cancer cell proliferation (A-549), in words [4] | Minimum Active Conc. (inhibition of microtube formation) [7] [µM]
COc1ccc(COc2cccc(NC(=O)Nc3cccc(Br)c3)c2)cc1 [Compound 9] | 198.5 | > 100 | 25 ± 2 | 3.9 ± 0.4 | – | – | – | – | – | 180 | 175 | 154 | 0.7 ± 0.3 | > 100 | 108 | – | – | –
COc1ccc(COc2cccc(NC(=O)Nc3cccc(OC)c3)c2)cc1 [Compound 12] | 137.5 to 168.9 | > 100 | > 100 | > 100 | – | – | – | – | – | – | – | – | 12 ± 1 | > 100 | – | no effect | no effect | –
CNC(=O)c1cc(Oc2ccc(NC(=O)Nc3ccc(Cl)c(C(F)(F)F)c3)cc2)ccn1 [Sorafenib, sorafenib, reference compound] | – | – | 17 ± 4 | 27 ± 2 | 14 ± 4 | 102 ± 10 | 96 ± 49 | 89 ± 2 | 80 ± 13 | – | – | – | 5 ± 0.7 | 34 ± 3 | – | – | – | 10
CCN(CC)CCNC(=O)c1c(C)[nH]c(/C=C2\C(=O)Nc3ccc(F)cc32)c1C [Sunitinib, sunitinib, reference compound] | – | – | – | – | – | – | – | – | – | – | – | – | – | – | – | – | – | 3

Now from value to compound, other results behind:

melting point [°C] | IC50 (Jurkat T cells) [µM] | IC50 [3] [µM] | IC50 [4] [µM] | IC50 [5] [µM] | Total PD-L1 (%) (PD-L1 [6]) | Total PD-L1 (%) (PD-L1 [8]) | % PD-L1 Memb. (PD-L1 [9]) [%] | % PD-L1 Total (PD-L1 [9]) [%] | Compound | LCK protein expression (Western blot quantification) (LCK) | pY394-LCK protein expression (Western blot quantification) (LCK) | pY505-LCK protein expression (Western blot quantification) (LCK) | IC50 [1] [µM] | IC50 [2] [µM] | FYN protein expression (Western blot quantification) (Fyn) | effect on cancer cell proliferation (HT-29), in words [3] | effect on cancer cell proliferation (A-549), in words [4] | Minimum Active Conc. (inhibition of microtube formation) [7] [µM]
198.5 | > 100 | 41 ± 5 | 25 ± 1 | – | – | – | – | – | COc1ccc(COc2cccc(NC(=O)Nc3ccccc3Br)c2)cc1 [Compound 10] | – | – | – | 8.7 ± 0.7 | > 100 | – | – | – | –
160 to 161.6 | > 100 | > 100 | > 100 | – | – | – | – | – | COc1ccc(COc2cccc(NC(=O)Nc3ccccc3OC)c2)cc1 [Compound 13] | – | – | – | > 100 | > 100 | – | no effect | no effect | –
